Read-outs that look alike come from different tables or passages of the source.
Legend:
[1] = biological target: T1, Human brain derived TDP-43 aggregates (Homo sapiens, UniProt Q13148); assay: Micro-radiobinding competition assay for binding affinity to TDP-43; conditions: for Ki: 0.24 nM to 2 μM vs tritiated reference ligand at 40 nM; for Human brain derived TDP-43 aggregates Mean % competition at 250 nM: non-radiolabeled compound at 250 nM vs tritiated reference ligand at 40 nM; for Human brain derived TDP-43 aggregates Mean % competition at 250 nM / Human brain derived TDP-43 aggregates Mean % competition at 2 μM: FTD sarkosyl-insoluble brain extracts; for Human brain derived TDP-43 aggregates Mean % competition at 2 μM: non-radiolabeled compound at 2 μM vs tritiated reference ligand at 40 nM
T1 construct: Human FTD sarkosyl-insoluble brain extracts were spotted onto microarray slides
Method: Human brain extracts were prepared as described in Laferriere et al., 2019, Nature Neurosc. A sample of brain tissue (frontal or temporal cortex) was homogenized at 1:4 (w/v) ratio in the homogenization-solubilization (HS) buffer at 4° C. using tissue homogenizer (Precellys) with CKmix homogenization tubes. The following sequence was used for homogenization: 3 cycles of 30 seconds at 5000 rpm (with 15 seconds pause between each cycle). Homogenized samples were aliquoted and stored at −80° C. in 1.5 mL low protein binding tubes.
Brain homogenates were thawed on ice and resuspended in HS buffer to obtain a final concentration of 2% sarkosyl, 1 unit/μL Benzonase and 1 mM MgCl2. The samples were then incubated at 37° C. under constant shaking at 600 rpm on a thermomixer for 45 minutes (min). The supernatants were collected in a new tube (sarkosyl-soluble fraction, S1). The pellet was resuspended in 1000 μL of myelin floatation buffer and centrifuged at 20,000 g for 60 min at 4° C. The supernatant was carefully removed to remove all the floating lipids. This step was repeated if all the lipids could not be removed in a single step. The pellet was subsequently washed with Phosphate-Buffered Saline (PBS) and centrifuged for 30 min at 20,000 g at 4° C. The final pellet was resuspended in 200 μL PBS and stored at −80° C. (sarkosyl-insoluble fraction). The samples were analyzed by immunoblotting in denaturing conditions.
Human FTD sarkosyl-insoluble brain extracts were spotted onto microarray slides. The slides were incubated with a tritiated reference ligand at 40 nM, and the example compounds (non-radiolabeled) at 2 μM and 250 nM. […] After incubation, slides were washed and scanned by a real-time autoradiography system (BeaQuant, ai4R). Quantification of the signal was performed by using the Beamage image analysis software (ai4R). Non-specific signal was determined with an excess of non-radiolabeled reference compound (2 μM) and specific binding was calculated by subtracting the non-specific signal from the total signal. Competition was calculated as percent, where 0% was defined as the specific binding in the presence of vehicle and 100% as the values obtained in the presence of excess of the non-radiolabeled reference compound. Ki values were calculated in GraphPad Prism8 by applying a nonlinear regression curve fit using a one site, specific binding model. Measurements were performed with at least two technical replicates in the two-concentration competition experiment and with one technical replicate in the experiments including a range of concentrations. For compounds tested in more than one experiment, the mean of the replicates or Ki values in independent experiments is reported.

Abeta = biological target: T2, Abeta (Homo sapiens, UniProt P05067); assay: Radiobinding competition assay using Abeta reference compound on AD insoluble fraction of brain homogenates; type: binding; conditions: against [3H]Abeta reference compound
T2 construct: an AD donor with confirmed burden of Tau and Abeta aggregates; from tissue; host or cells: frontal cortex of a human AD donor, Triton/sucrose-insoluble fraction
Method: Approximately 4 g of frozen tissue block from frontal cortex brain region was used from an AD donor with confirmed burden of Tau and Abeta aggregates. The tissue was homogenized in three volumes (1:3 w/v) of high salt buffer (50 mM Tris-HCl pH 7.5, 750 mM NaCl, 5 mM EDTA) supplemented with protease inhibitors (Complete; Roche 11697498001) at 4° C. with a glass Dounce homogenizer. The homogenate was transferred into polycarbonate centrifuge bottles (16×76 mm; Beckman 355603) and centrifuged at 100,000×g (38,000 RPM) in an ultracentrifuge (Beckman, XL100K) for 60 minutes at 4° C. using a pre-cooled 70.1 rotor (Beckman, 342184). Pellets were resuspended in high salt buffer supplemented with 1% Triton X-100 and homogenized at 4° C. with a syringe. The homogenates were centrifuged again at 100,000×g (38,000 RPM, 70.1 rotor) for 60 minutes at 4° C. Pellets were resuspended in high salt buffer supplemented with 1% Triton X-100 and 1 M sucrose and homogenized at 4° C. with a syringe. The homogenates were centrifuged at 100,000×g (38,000 RPM, 70.1 rotor) for 60 minutes at 4° C. The resulting pellets containing insoluble fraction were resuspended in PBS (1:2 w/v relative to starting tissue weight), aliquoted and stored at −80° C. until use.
The reaction was performed in assay buffer (50 mM Tris pH 7.5 in 0.9% NaCl, 0.1% BSA) and incubated for two hours at room temperature (RT). Samples in duplicate were then filtered under vacuum in GF/C filter plates (PerkinElmer) to trap the aggregates with the bound radioligand and washed with 100 μL ice-cold 50 mM Tris pH 7.5. The GF/C filters were then dried and scintillation liquid (UltimateGold, PerkinElmer, 6013151) was added in each well. The filters were analyzed on a Microbeta2 scintillation counter (PerkinElmer). Values for the maximal signal were obtained in the absence of non-radiolabeled compound, while 100% displacement was obtained using 1 μM of non-radiolabeled reference compound. Ki values were calculated by nonlinear regression, using a one site—fit Ki model in Prism V7 (GraphPad).

[2] = tested on: Abeta and Tau aggregates in AD tissue; assay: Classical autoradiography on Abeta- and Tau-rich AD brain tissue sections; type: binding, human; conditions: tritiated compound 10 nM; alone or in self-competition
Method: All tissues were collected from donors for or from whom a written informed consent for a brain autopsy and the use of the material and clinical information for research purposes had been obtained by the respective brain banks. All samples were anonymized and coded. Frozen brain tissue blocks with confirmed Abeta and Tau pathology upon autopsy were processed using a cryotome to generate sections of 10 μm in thickness and mounted on glass slides. Sections were kept at −80° C. until use.
Brain sections were fixed for 15 minutes at 4° C. with 4% formaldehyde on ice and washed three times for eight minutes with 1×PBS at RT. Sections were blocked in assay buffer for 30 minutes (50 mM Tris-HCl, 0.9% NaCl+0.1% BSA). Cold test compound (Compound 1) was diluted in assay buffer to 4 μM and applied on half of the sections for 40 minutes at RT to determine non-specific binding. The remaining half of the sections were only incubated with assay buffer (total binding). […]
Sections were subsequently dried under a stream of air and mounted with a copper-based adhesive strip. Bound radioactivity was quantified by exposing the slides in a real-time autoradiography system (Beaquant™ AI4R) for 2 hours with measurement settings configured for tritium. Beavacq software (AI4R) was used to acquire the image which was subsequently quantified using Beamage image analysis software (AI4R).

[3] = cells printed in μM, read-out: Ki on AD brain homogenates

T2 sequence (P05067 672-713 limits assumed): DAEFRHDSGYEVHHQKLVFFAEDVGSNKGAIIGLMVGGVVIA
T1 sequence (Q13148 261-414 limits assumed): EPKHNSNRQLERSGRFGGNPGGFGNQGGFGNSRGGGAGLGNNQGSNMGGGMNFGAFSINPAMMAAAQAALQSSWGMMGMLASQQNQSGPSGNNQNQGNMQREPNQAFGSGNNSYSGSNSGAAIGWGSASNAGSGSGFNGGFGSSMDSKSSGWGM

SMILES	Ki [1]	Human brain derived TDP-43 aggregates Mean % competition at 250 nM [1]	Human brain derived TDP-43 aggregates Mean % competition at 2 μM [1]	Ki (Abeta; [3])	Classical autoradiography signal on AD tissue with abundant Abeta and Tau pathology [2]	Ki (Abeta; read-out: Ki (nM) on AD brain homogenates)
O=C1c2sc(-c3ccc(N4CCC(CO)CC4)nc3F)nc2CCN1c1cccnc1 [Compound 17, 2-(2-fluoro-6-(4-(hydroxymethyl)piperidin-1-yl)pyridin-3-yl)-5-(pyridin-3-yl)-6,7-dihydrothiazolo[5,4-c]pyridin-4(5H)-one]	41 nM	73%	85%	> 1 µM	no signal on the tissue	–
O=C1c2sc(-c3ccc(N4CC[C@@H](F)C4)nc3F)nc2CCN1c1cccnc1 [Compound 1, 2-[2-fluoro-6-[(3R)-3-fluoropyrrolidin-1-yl]-3-pyridyl]-5-(3-pyridyl)-6,7-dihydrothiazolo[5,4-c]pyridin-4-one]	22 nM	65%	78%	> 1 µM	no signal on the tissue	> 1 µM

Source: patent US20260103474A1, “NOVEL COMPOUNDS FOR THE DIAGNOSIS OF TDP-43 PROTEINOPATHIES” (AC IMMUNE SA, priority 2022, published 2026)
